Measurements reported in publication PMC4113814, “Bioactive Cembrane Derivatives from the Indian Ocean Soft Coral, Sinularia kavarattiensis” (Marine Drugs, 2014).
≈ marks a conversion by molar mass, not a printed value.

Key:
IL-6 = IL-6 release in supernatants of LPS-treated primary microglial cells (ELISA); type: cell-based, Wistar rats; details: 72 h; for IL-6 release: LPS-treated; for IC50: Rattus norvegicus, inhibition of LPS-induced cytokine release, read-out: IL-6 IC50
Experimental: (§1) Primary microglial cell cultures were prepared from brains of newborn Wistar rats. Ethics approval for the experiments was granted by the EBIOTEC Review Board (Valter Lombardi, Iván Carrera and Lucía Fernández-Novoa; Project Identification Code: Sinularia Project October 2013; approved 30 October 2013). The neocortex of one-day-old postnatal rats was aseptically dissected out, and the meninges and blood vessels were carefully removed. Following cutting in a medium containing 20% horse serum, the suspension was filtered through a […] and transferred as a single cell suspension to culture dishes, using 5.0 mL of medium per dish. The cultures were incubated at 37 °C in an atmosphere containing 5% CO2. The culture medium consisted of Minimum Essential Medium Eagle, supplemented with L-glutamine, amino acids, vitamins, penicillin, gentamicin, sodium bicarbonate and 20% heat-inactivated horse serum. The medium was changed twice a week. After 1 week, the concentration of horse serum was reduced to 10%. After sixteen days in culture, cells were treated with 1 μg/mL of lipopolysaccharide (LPS). […] Positive controls were treated only with LPS, while negative controls were treated with complete medium. After 72 h of incubation, cells were counted, and 2.5 mL of the supernatants were collected from each well and frozen at −40 °C for cytokine analyses. All experiments were carried out twice.
(§2) The supernatants obtained from cell cultures were analyzed for TNF-α, IL-1β, IL-4, IL-6, IL-8, IL-10 and IL-18 using commercially available ELISA kits following the manufacturers’ instructions. All samples were assayed in duplicate, and equivocal results were repeated. The cytokine concentration was calculated from a standard curve of the corresponding recombinant cytokine.
(§3) The cytotoxicity of the compounds was measured by the colorimetric methyl thiazol tetrazolium (MTT) assay and scored as a percentage of the absorbance reduction of treated cultures versus untreated control cultures. Primary microglial cell cultures were seeded into 96-well microplates at 10^4 cells per well and allowed to grow for 24 h. […] The compounds were serially diluted in complete culture medium with two-fold dilutions (100, 50, 25, 12.5, 6.25, 3.12 and 1.56 μg/mL for in vitro cytotoxicity; 12.5, 6.25, 3.12, 1.56, 0.78 and 0.39 μg/mL for cytokine release). Different concentrations of the compounds were added to each well, and Tamoxifen was used as a positive control, with concentrations ranging from 50 to 1.56 μg/mL. Plates were incubated at 37 °C for 72 h under 5% CO2 atmosphere. Then, the 50 μL of MTT-PBS solution in culture medium were added to each well. The plates were further incubated for 4 h under the same conditions. The medium was then removed and replaced with 200 μL of DMSO to solubilize the MTT formazan product. The solutions were shaken for 20 min, and the absorbance was measured at 570 nm. […] Each value represents the mean of triplicate determinations. The IC50 values were calculated from the compound concentration-response curves.

IL-10 = IL-10 release in supernatants of LPS-treated primary microglial cells (ELISA); type: cell-based, Wistar rats; details: 72 h; for IL-10 release: LPS-treated; for IC50: Rattus norvegicus, inhibition of LPS-induced cytokine release, read-out: IL-10 IC50
Experimental: as §1, §2, §3

[1] = MTT cytotoxicity assay on primary microglial cell cultures; type: cell-based, Wistar rats; details: Wistar, rat, mean of triplicate
Experimental: Primary microglial cell cultures were prepared from brains of newborn Wistar rats. Ethics approval for the experiments was granted by the EBIOTEC Review Board (Valter Lombardi, Iván Carrera and Lucía Fernández-Novoa; Project Identification Code: Sinularia Project October 2013; approved 30 October 2013). The neocortex of one-day-old postnatal rats was aseptically dissected out, and the meninges and blood vessels were carefully removed. Following cutting in a medium containing 20% horse serum, the suspension was filtered through a […] and transferred as a single cell suspension to culture dishes, using 5.0 mL of medium per dish. The cultures were incubated at 37 °C in an atmosphere containing 5% CO2. The culture medium consisted of Minimum Essential Medium Eagle, supplemented with L-glutamine, amino acids, vitamins, penicillin, gentamicin, sodium bicarbonate and 20% heat-inactivated horse serum. The medium was changed twice a week. After 1 week, the concentration of horse serum was reduced to 10%. After sixteen days in culture, cells were treated with 1 μg/mL of lipopolysaccharide (LPS). After six hours, different concentrations (1.0 μg/mL, 2.5 μg/mL and 5.0 μg/mL) of Compounds 1–4 and 6 were added to each well, and plates were incubated for 72 h at 37 °C in an atmosphere containing 5% CO2. Positive controls were treated only with LPS, while negative controls were treated with complete medium. After 72 h of incubation, cells were counted, and 2.5 mL of the supernatants were collected from each well and frozen at −40 °C for cytokine analyses. All experiments were carried out twice.
The cytotoxicity of the compounds was measured by the colorimetric methyl thiazol tetrazolium (MTT) assay and scored as a percentage of the absorbance reduction of treated cultures versus untreated control cultures. Primary microglial cell cultures were seeded into 96-well microplates at 10^4 cells per well and allowed to grow for 24 h. The initial concentration of Compounds 1–4 and 6 was 100 μg/mL in DMSO. The compounds were serially diluted in complete culture medium with two-fold dilutions (100, 50, 25, 12.5, 6.25, 3.12 and 1.56 μg/mL for in vitro cytotoxicity; 12.5, 6.25, 3.12, 1.56, 0.78 and 0.39 μg/mL for cytokine release). Different concentrations of the compounds were added to each well, and Tamoxifen was used as a positive control, with concentrations ranging from 50 to 1.56 μg/mL. Plates were incubated at 37 °C for 72 h under 5% CO2 atmosphere. Then, the 50 μL of MTT-PBS solution in culture medium were added to each well. The plates were further incubated for 4 h under the same conditions. The medium was then removed and replaced with 200 μL of DMSO to solubilize the MTT formazan product. The solutions were shaken for 20 min, and the absorbance was measured at 570 nm. […] Each value represents the mean of triplicate determinations. The IC50 values were calculated from the compound concentration-response curves.

CHIKV replicon = assay: microbe, parasite or virus in culture; details: Chikungunya virus, 48 h, read-out: inhibition of the CHIKV replicon (Rluc marker levels)

| SMILES | IL-6 release (IL-6; C1: 1.0 μg/mL) | IL-6 release (IL-6; C2: 2.5 μg/mL) | IL-6 release (IL-6; C3: 5.0 μg/mL) | IC50 (IL-6) | IL-10 release (IL-10; C1: 1.0 μg/mL) | IL-10 release (IL-10; C2: 2.5 μg/mL) | IL-10 release (IL-10; C3: 5.0 μg/mL) | IC50 (IL-10) | IC50 at 72 h [1] | inhibition at 100 µM (CHIKV replicon) |
| --- | --- | --- | --- | --- | --- | --- | --- | --- | --- | --- |
| C=C(C)[C@@H]1C/C=C2\C(=O)O[C@@H](C[C@]3(C)CC(=O)[C@@H](CC(=O)C1)O3)[C@@H]2O [Compound 2, sinuleptolide] | 12.1 ± 0.9 pg/mL | 7.8 ± 1.4 pg/mL | 8.5 ± 1.3 pg/mL | 2.2 µg/mL (≈ 6.31 µM) | 7.9 ± 3.4 pg/mL | 17.4 ± 2.3 pg/mL | 18.5 ± 1.9 pg/mL | 0.5 µg/mL (≈ 1.44 µM) | > 100 µg/mL | > 60% |
| C=C(C)[C@@H]1CC(=O)[C@H]2[C@H](C1)[C@@H]1C(=O)O[C@@H]3C[C@@]4(C)O[C@H]2C(=O)[C@@H]4[C@H]13 [Compound 6, ineleganolide] | 13.2 ± 0.2 pg/mL | 12.1 ± 0.9 pg/mL | 11.8 ± 1.2 pg/mL | > 12.5 µg/mL | 8.5 ± 3.2 pg/mL | 7.8 ± 2.2 pg/mL | 7.5 ± 2.1 pg/mL | > 12.5 µg/mL | > 100 µg/mL | 0.5 to 63% |
| C=C(C)C1CCC23OC2C(CC2(C)CC(=O)C(CC(=O)C1)O2)OC3=O (stereo not shown) [Compound 3, scabrolide D] | 12.9 ± 1.1 pg/mL | 11.5 ± 1.3 pg/mL | 13.2 ± 1.2 pg/mL | > 12.5 µg/mL | 7.5 ± 1.4 pg/mL | 6.8 ± 1.5 pg/mL | 6.9 ± 1.5 pg/mL | > 12.5 µg/mL | > 100 µg/mL | 44% |
| C=C(C)[C@@H]1C/C=C2\C(=O)O[C@@H](C[C@]3(C)CC(=O)[C@H](CC(=O)C1)O3)[C@@H]2O [Compound 1, 5-epi-sinuleptolide] | 14.2 ± 1.8 pg/mL | 11.7 ± 1.2 pg/mL | 13.5 ± 1.4 pg/mL | > 12.5 µg/mL | 7.6 ± 1.6 pg/mL | 8.2 ± 1.8 pg/mL | 8.7 ± 2.1 pg/mL | > 12.5 µg/mL | > 100 µg/mL | > 60% |
